Results taken from patent publication US11618743B2, “Herbicidal compounds” (SYNGENTA PARTICIPATIONS AG, priority 2017, dated 2023).

Experiments:
Test in all cases: Post-emergence efficacy, Method A
Type in all cases: in vivo
[1] = tested on: Amaranthus palmeri (AMAPA); details: Application rate 500 g/Ha, evaluated after 13 days; for Control of weed species AMAPA after post-emergence application (100=total damage to plant; 0=no damage to plant): Method A; for Control of weed species after post-emergence application, AMAPA: 100=total damage to plant, 0=no damage
Procedure: (§1) Seeds of a variety of test species were sown in standard soil in pots. After cultivation for 14 days (post-emergence) under controlled conditions in a glasshouse (at 24/16° C., day/night; 14 hours light; 65% humidity), the plants were sprayed with an aqueous spray solution derived from the dissolution of the technical active ingredient formula (I) in a small amount of acetone and a special solvent and emulsifier mixture referred to as IF50 (11.12% Emulsogen EL360 TM+44.44% N-methylpyrrolidone+44.44% Dowanol DPM glycol ether), to create a 50 g/l solution which was then diluted to required concentration using 0.25% or 1% Empicol ESC70 (Sodium lauryl ether sulphate)+1% ammonium sulphate as diluent.
(§2) The test plants were then grown in a glasshouse under controlled conditions (at 24/16° C., day/night; 14 hours light; 65% humidity) and watered twice daily. After 13 days the test was evaluated (100=total damage to plant; 0=no damage to plant).
(§3) Ipomoea hederacea (IPOHE), Euphorbia heterophylla (EPHHL), Chenopodium album (CHEAL), Amaranthus palmeri (AMAPA), Lolium perenne (LOLPE), Digitaria sanguinalis (DIGSA), Eleusine indica (ELEIN), Echinochloa crus-galli (ECHCG), Setaria faberi (SETFA)

[2] = tested on: Digitaria sanguinalis (DIGSA); details: Application rate 500 g/Ha, evaluated after 13 days; for Control of weed species DIGSA after post-emergence application (100=total damage to plant; 0=no damage to plant): Method A; for Control of weed species after post-emergence application, DIGSA: 100=total damage to plant, 0=no damage
Procedure: as §1, §2, §3

[3] = tested on: Echinochloa crus-galli (ECHCG); details: Application rate 500 g/Ha, evaluated after 13 days; for Control of weed species ECHCG after post-emergence application (100=total damage to plant; 0=no damage to plant): Method A; for Control of weed species after post-emergence application, ECHCG: 100=total damage to plant, 0=no damage
Procedure: as §1, §2, §3

[4] = tested on: Chenopodium album (CHEAL); details: Application rate 500 g/Ha, evaluated after 13 days; for Control of weed species CHEAL after post-emergence application (100=total damage to plant; 0=no damage to plant): Method A; for Control of weed species after post-emergence application, CHEAL: 100=total damage to plant, 0=no damage
Procedure: as §1, §2, §3

Setaria faberi (SETFA) = details: Application rate 500 g/Ha, evaluated after 13 days; for Control of weed species SETFA after post-emergence application (100=total damage to plant; 0=no damage to plant): Method A; for Control of weed species after post-emergence application, SETFA: 100=total damage to plant, 0=no damage
Procedure: as §1, §2, §3

Eleusine indica (ELEIN) = details: Application rate 500 g/Ha, evaluated after 13 days; for Control of weed species ELEIN after post-emergence application (100=total damage to plant; 0=no damage to plant): Method A; for Control of weed species after post-emergence application, ELEIN: 100=total damage to plant, 0=no damage
Procedure: as §1, §2, §3

[5] = tested on: Euphorbia heterophylla (EPHHL); details: Application rate 500 g/Ha, evaluated after 13 days; for Control of weed species EPHHL after post-emergence application (100=total damage to plant; 0=no damage to plant): Method A
Procedure: as §1, §2, §3

| SMILES | Control of weed species AMAPA after post-emergence application (100=total damage to plant; 0=no damage to plant) [1] | Control of weed species DIGSA after post-emergence application (100=total damage to plant; 0=no damage to plant) [2] | Control of weed species ECHCG after post-emergence application (100=total damage to plant; 0=no damage to plant) [3] | Control of weed species CHEAL after post-emergence application (100=total damage to plant; 0=no damage to plant) [4] | Control of weed species SETFA after post-emergence application (100=total damage to plant; 0=no damage to plant) (Setaria faberi (SETFA)) | Control of weed species ELEIN after post-emergence application (100=total damage to plant; 0=no damage to plant) (Eleusine indica (ELEIN)) | Control of weed species EPHHL after post-emergence application (100=total damage to plant; 0=no damage to plant) [5] | Control of weed species after post-emergence application, AMAPA [1] | Control of weed species after post-emergence application, DIGSA [2] | Control of weed species after post-emergence application, ECHCG [3] | Control of weed species after post-emergence application, CHEAL [4] | Control of weed species after post-emergence application, ELEIN (Eleusine indica (ELEIN)) | Control of weed species after post-emergence application, EPHHL ([5]; 100=total damage to plant, 0=no damage) | Control of weed species after post-emergence application, SETFA (Setaria faberi (SETFA)) |
| --- | --- | --- | --- | --- | --- | --- | --- | --- | --- | --- | --- | --- | --- | --- |
| O=C([O-])C(F)(F)F.O=S(=O)(O)CCC[n+]1ccc(-c2cnccn2)cn1 [Compound A10] | 100 | 60 | 30 | 100 | 60 | 50 | 100 |  |  |  |  |  |  |  |
| CC(CC(=O)O)[n+]1ccc(-c2ncccn2)cn1.O=C([O-])C(F)(F)F (stereo not shown) [Compound A40, 3-(4-pyrimidin-2-ylpyridazin-1-ium-1-yl)butanoic acid 2,2,2-trifluoroacetate] | 90 | 90 | 90 | 70 | 100 | 90 | 90 |  |  |  |  |  |  |  |
| COC(=O)CC[n+]1ccc(-c2ncccn2)cn1.O=C([O-])C(F)(F)F [Compound A54, methyl 3-(4-pyrimidin-2-ylpyridazin-1-ium-1-yl)propanoate 2,2,2-trifluoroacetate] | 90 | 100 | 90 | 90 | 100 | 100 | 70 |  |  |  |  |  |  |  |
| Cc1nccc(-c2cc[n+](CCC(=O)O)nc2)n1.O=C([O-])C(F)(F)F [Compound A55] |  | 100 | 90 | 80 | 100 | 100 | 70 |  |  |  |  |  |  |  |
| Nc1cc(-c2cc[n+](CCC(=O)O)nc2)ncn1.O=C([O-])C(F)(F)F [Compound A163] |  |  |  |  |  |  |  | 100 | 50 | 40 | 60 | 90 | 50 |  |
| CC(C[n+]1ccc(-c2ccncn2)cn1)C(=O)O.O=C([O-])C(F)(F)F (stereo not shown) [Compound A171] |  |  |  |  |  |  |  | 100 | 60 | 60 | 80 | 80 |  | 60 |
| N#Cc1ccc(-c2cc[n+](CCC(=O)O)nc2)nc1.O=C([O-])C(F)(F)F [Compound A176] |  |  |  |  |  |  |  | 40 | 30 | 30 | 30 | 70 |  | 40 |
| O=C([O-])C(F)(F)F.OCC[n+]1ccc(-c2ncccn2)cn1 [Compound A195, 2-(4-pyrimidin-2-ylpyridazin-1-ium-1-yl)ethanol 2,2,2-trifluoroacetate] |  |  |  |  |  |  |  |  | 20 | 10 | 60 | 10 |  |  |
| N[C@@H](CC[n+]1ccc(-c2ncccn2)cn1)C(=O)O.O=C(O)C(F)(F)F.O=C([O-])C(F)(F)F [Compound A201, [(1S)-1-carboxy-3-(4-pyrimidin-2-ylpyridazin-1-ium-1-yl)propyl]ammonium 2,2,2-trifluoroacetate] |  |  |  |  |  |  |  |  | 80 | 70 |  |  |  | 80 |
| O=C(O)c1ccc(C[n+]2ccc(-c3ncccn3)cn2)cc1.O=C([O-])C(F)(F)F [Compound A228] |  |  |  |  |  |  |  | 80 | 20 | 10 | 60 | 10 |  | 10 |
| COC(=O)c1ccc(C[n+]2ccc(-c3ncccn3)cn2)cc1.O=C([O-])C(F)(F)F [Compound A229] |  |  |  |  |  |  |  | 10 | 20 | 0 | 0 | 0 |  | 10 |
| O=C([O-])C(F)(F)F.O=P(O)(O)CCC[n+]1ccc(-c2ncccn2)cn1 [Compound A233] |  |  |  |  |  |  |  | 100 | 60 | 60 | 100 | 50 |  | 70 |
